What was measured:
[1] = Solubility of testosterone esters in lipophilic additives (castor oil, oleic acid, glyceryl mono and di linoleate), HPLC; details: room temperature, equilibrium, compared to the Undecanoate (T11) ester, values only in FIGS. 1-3
[2] = background statement, cited from earlier work
[3] = single daily dose oral administration

SMILES: CCCCCCCCCCCCCC(=O)O[C@H]1CC[C@H]2[C@@H]3CCC4=CC(=O)CC[C@]4(C)[C@H]3CC[C@]12C [Testosterone Tetradecoate (T14), Testosterone Tetradecoate]
- solubility in lipophilic additives (in words) [1]: unexpectedly disproportionate lower solubility

SMILES: CCCCCCCCCCCCC(=O)O[C@H]1CC[C@H]2[C@@H]3CCC4=CC(=O)CC[C@]4(C)[C@H]3CC[C@]12C [Testosterone Tridecoate (T13), Testosterone Tridecoate]
- solubility in lipophilic additives (in words) [1]: unexpectedly disproportionate lower solubility

SMILES: CCCCCCCCCCC(=O)O[C@H]1CC[C@H]2[C@@H]3CCC4=CC(=O)CC[C@]4(C)[C@H]3CC[C@]12C [Testosterone Undecanoate (T11), Testosterone Undecanoate]
- percentage of patients in a group whose serum T remains in the hypogonadal range for a large proportion of the dosing period [2, 3]: > 60%
- time serum T levels remain in the hypogonadal range (<300 ng/dL) in a 24-hour period [2, 3]: > 7 h

SMILES: C[C@]12CCC(=O)C=C1CC[C@@H]1[C@@H]2CC[C@@]2(C)[C@H]1CC[C@]2(C)O [methyl testosterone]
- reported adverse effects (in words) ([2]; oral use): liver damage including cholestasis, peliosis hepatitis, nodular regenerative hyperplasia, and primary hepatic tumors
